In US20230148005A1, “MACROCYCLIC COMPOUNDS AND USES THEREOF” (THESEUS PHARMACEUTICALS, INC., priority 2020, published 2023):
Where two headings read alike, the source gives them in different places.

What was measured:
[1] = system: Ba/F3 Parental; assay: Ba/F3 viability assay (CellTiter-Glo), parental; type: cell-based
In short: (§1)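 Read-out: viability signal, used as the measure of proliferation inhibition by test compounds.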

[2] = target: EGFR^L58R/T790M (Homo sapiens, UniProt P00533, L858R/T790M); assay: in vitro kinase assay (HTRF KinEASE-TK kit), LT; type: biochemical; conditions: kinase inhibition
Text: (§2) Assays using an in vitro kinase assay kit (HTRF KinEASE-TK kit) can be used to study the inhibitory activity of compounds described herein with respect to EGFR mutants such as EGFR^L858R, EGFR^L58R/T790M, and EGFR^L858R/T790M/C^797S.

[3] = target: EGFR^L858R (Homo sapiens, UniProt P00533, L858R); assay: in vitro kinase assay (HTRF KinEASE-TK kit), L; type: biochemical; conditions: kinase inhibition
Text: as §2

[4] = target: EGFR^L858R/T790M/C^797S (Homo sapiens, UniProt P00533, C797S/L858R/T790M); assay: in vitro kinase assay (HTRF KinEASE-TK kit), LTC; type: biochemical; conditions: kinase inhibition
Text: as §2

[5] = target: Ba/F3 EGFR-Del19/C797S (Homo sapiens, UniProt P00533, C797S, cells depend on it, form not given); assay: Ba/F3 viability assay (CellTiter-Glo), DC; type: cell-based; conditions: anti-proliferation, read-out: BaF3 DC IC50
In short: as §1

[6] = target: Ba/F3 EGFR-Del19/T790M/C797S (Homo sapiens, UniProt P00533, T790M/C797S, cells depend on it, form not given); assay: Ba/F3 viability assay (CellTiter-Glo), DTC; type: cell-based; conditions: anti-proliferation, read-out: BaF3 DTC IC50
In short: as §1

[7] = target: Ba/F3 EGFR-Del19/T790M (Homo sapiens, UniProt P00533, T790M, cells depend on it, form not given); assay: Ba/F3 viability assay (CellTiter-Glo), DT; type: cell-based; conditions: anti-proliferation, read-out: BaF3 DT IC50
In short: as §1

[8] = Mus musculus, BaF3, anti-proliferation
[9] = anti-proliferation, read-out: BaF3 parental IC50

EGFR^L858R, sequence (P00533 25-1210 L858R): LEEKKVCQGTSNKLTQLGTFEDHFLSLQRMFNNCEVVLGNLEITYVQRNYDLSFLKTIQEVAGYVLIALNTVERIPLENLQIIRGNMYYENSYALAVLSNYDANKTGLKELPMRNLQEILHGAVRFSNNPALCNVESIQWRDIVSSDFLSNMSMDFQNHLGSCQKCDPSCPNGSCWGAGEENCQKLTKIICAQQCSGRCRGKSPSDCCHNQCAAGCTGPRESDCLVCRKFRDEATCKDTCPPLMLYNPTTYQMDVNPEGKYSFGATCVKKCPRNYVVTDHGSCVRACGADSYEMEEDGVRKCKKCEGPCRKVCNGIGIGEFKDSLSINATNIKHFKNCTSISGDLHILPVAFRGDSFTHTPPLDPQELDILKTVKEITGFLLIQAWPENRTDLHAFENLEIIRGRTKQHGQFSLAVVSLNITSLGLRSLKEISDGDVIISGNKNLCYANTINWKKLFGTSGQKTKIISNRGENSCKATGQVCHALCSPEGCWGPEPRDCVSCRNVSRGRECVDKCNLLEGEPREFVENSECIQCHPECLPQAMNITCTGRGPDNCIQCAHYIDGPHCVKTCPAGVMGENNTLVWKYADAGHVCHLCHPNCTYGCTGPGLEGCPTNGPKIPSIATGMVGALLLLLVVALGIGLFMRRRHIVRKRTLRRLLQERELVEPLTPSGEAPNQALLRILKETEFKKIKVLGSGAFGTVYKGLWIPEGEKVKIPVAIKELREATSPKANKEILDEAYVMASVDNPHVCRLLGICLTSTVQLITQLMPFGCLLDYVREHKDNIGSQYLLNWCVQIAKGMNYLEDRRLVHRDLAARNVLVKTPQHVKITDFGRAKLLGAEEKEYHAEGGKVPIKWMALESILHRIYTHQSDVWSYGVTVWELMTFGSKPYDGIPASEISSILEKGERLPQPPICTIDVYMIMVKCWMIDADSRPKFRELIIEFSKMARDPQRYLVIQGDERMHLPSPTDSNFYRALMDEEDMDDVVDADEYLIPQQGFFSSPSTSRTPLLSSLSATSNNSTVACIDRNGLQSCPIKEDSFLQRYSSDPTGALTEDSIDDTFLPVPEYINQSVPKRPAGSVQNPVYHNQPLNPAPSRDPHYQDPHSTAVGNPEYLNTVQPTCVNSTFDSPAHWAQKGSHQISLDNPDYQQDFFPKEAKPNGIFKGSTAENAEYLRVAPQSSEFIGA
Ba/F3 EGFR-Del19/T790M, sequence (P00533 with tags, fused parts or gaps DEL746-750/T790M, form open): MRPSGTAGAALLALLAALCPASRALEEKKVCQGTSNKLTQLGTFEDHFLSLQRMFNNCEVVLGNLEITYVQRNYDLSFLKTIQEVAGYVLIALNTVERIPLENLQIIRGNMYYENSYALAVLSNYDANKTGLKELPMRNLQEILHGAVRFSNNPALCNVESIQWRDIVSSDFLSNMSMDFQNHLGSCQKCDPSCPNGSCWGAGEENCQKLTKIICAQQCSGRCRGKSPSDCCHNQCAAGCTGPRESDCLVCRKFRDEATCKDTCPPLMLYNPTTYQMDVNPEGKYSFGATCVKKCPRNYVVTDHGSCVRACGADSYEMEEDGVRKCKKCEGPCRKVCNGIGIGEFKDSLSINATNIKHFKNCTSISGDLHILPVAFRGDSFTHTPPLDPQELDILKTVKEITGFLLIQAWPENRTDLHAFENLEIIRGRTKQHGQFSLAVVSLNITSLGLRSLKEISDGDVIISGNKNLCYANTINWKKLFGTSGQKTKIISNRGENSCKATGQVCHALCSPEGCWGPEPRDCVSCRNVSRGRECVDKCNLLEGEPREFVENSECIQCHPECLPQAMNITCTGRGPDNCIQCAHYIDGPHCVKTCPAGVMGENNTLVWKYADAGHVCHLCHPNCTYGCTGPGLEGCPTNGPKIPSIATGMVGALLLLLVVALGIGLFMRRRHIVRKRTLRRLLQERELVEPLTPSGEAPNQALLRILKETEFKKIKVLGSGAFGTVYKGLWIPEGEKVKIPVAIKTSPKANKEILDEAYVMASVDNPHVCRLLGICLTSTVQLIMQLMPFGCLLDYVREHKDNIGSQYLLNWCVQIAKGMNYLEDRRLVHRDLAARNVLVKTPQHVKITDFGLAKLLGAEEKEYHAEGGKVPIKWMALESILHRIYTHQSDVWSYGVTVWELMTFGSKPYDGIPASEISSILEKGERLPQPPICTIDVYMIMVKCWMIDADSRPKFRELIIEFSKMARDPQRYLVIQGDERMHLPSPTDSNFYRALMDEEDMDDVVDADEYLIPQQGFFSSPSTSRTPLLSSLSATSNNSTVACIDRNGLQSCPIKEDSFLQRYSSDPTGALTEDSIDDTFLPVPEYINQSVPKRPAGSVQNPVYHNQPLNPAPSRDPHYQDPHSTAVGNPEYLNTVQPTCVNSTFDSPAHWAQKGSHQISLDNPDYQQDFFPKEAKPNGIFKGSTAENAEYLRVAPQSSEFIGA
Ba/F3 EGFR-Del19/C797S, sequence (P00533 with tags, fused parts or gaps DEL746-750/C797S, form open): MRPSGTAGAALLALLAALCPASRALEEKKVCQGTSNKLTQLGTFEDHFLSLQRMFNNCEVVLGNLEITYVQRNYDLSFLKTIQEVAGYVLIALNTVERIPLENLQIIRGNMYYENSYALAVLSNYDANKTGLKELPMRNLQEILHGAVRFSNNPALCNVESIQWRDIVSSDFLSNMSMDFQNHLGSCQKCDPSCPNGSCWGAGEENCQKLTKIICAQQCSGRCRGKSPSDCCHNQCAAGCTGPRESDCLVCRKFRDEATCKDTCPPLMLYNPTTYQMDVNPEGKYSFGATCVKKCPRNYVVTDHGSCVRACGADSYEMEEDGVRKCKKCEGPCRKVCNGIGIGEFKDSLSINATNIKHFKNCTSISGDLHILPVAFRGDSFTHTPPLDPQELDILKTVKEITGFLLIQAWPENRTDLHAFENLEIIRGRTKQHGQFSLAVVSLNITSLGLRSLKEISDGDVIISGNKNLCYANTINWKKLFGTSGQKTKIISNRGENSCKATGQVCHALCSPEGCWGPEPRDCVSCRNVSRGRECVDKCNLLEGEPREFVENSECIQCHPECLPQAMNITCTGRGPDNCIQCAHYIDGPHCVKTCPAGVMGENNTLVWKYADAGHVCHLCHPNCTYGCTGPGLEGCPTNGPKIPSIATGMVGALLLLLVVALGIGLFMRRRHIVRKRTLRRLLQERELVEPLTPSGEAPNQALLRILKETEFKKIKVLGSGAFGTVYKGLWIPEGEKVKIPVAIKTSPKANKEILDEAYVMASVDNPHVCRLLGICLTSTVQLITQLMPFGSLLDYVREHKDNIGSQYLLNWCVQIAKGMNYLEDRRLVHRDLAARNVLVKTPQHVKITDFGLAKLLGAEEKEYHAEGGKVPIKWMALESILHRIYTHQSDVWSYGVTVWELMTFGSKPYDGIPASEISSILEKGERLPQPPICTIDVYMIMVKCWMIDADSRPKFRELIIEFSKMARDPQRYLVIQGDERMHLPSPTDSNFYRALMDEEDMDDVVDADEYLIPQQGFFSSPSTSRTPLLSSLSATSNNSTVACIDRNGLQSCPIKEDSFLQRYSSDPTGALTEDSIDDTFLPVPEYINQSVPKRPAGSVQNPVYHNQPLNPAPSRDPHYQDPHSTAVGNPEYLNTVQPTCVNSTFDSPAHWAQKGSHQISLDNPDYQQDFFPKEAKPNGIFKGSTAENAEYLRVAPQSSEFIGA
Ba/F3 EGFR-Del19/T790M/C797S, sequence (P00533 with tags, fused parts or gaps DEL746-750/T790M/C797S, form open): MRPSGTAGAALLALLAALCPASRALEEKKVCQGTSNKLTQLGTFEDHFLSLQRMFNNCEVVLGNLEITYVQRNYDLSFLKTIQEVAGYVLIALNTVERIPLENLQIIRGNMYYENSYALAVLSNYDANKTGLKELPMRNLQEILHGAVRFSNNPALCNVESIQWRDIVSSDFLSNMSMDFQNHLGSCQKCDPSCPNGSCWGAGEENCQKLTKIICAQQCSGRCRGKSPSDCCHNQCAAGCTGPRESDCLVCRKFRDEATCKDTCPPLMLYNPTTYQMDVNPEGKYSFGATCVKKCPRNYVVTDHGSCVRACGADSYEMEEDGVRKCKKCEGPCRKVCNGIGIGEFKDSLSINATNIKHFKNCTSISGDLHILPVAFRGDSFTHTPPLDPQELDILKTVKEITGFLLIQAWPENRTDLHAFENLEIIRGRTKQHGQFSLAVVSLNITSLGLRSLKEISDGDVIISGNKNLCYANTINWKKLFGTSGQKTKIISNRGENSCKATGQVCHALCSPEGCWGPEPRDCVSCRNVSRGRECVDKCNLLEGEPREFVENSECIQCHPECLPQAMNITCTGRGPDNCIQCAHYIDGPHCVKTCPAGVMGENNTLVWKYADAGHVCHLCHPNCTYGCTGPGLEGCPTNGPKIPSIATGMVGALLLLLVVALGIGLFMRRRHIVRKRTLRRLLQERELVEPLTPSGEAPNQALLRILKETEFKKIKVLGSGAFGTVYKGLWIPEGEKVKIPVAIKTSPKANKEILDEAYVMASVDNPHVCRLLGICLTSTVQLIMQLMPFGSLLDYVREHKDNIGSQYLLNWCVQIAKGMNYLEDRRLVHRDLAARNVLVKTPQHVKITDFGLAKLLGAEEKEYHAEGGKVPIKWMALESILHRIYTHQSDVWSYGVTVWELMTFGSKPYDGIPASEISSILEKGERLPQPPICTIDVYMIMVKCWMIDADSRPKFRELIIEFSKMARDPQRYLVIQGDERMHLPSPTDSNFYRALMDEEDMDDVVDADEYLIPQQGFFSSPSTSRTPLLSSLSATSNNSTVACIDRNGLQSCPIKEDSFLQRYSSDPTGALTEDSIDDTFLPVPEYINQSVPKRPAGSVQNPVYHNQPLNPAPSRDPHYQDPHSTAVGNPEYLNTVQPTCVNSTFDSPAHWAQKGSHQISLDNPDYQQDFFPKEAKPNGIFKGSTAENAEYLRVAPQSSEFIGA

Row | Compound | IC50 [2] [µM] | IC50 [3] [µM] | IC50 [4] [µM] | IC50 [1, 8] [µM] | GI50 [5] [µM] | GI50 [6] [µM] | GI50 [7] [µM] | IC50 [1, 9] [µM]
1 | C[C@H]1CCOc2c(cnn2C)-c2nccc(n2)Nc2cc3c(cn2)c(-c2ccc(CN(C)CCF)n2C)nn31 [(184), N-[[5-[(16S)-11,16-dimethyl-13-oxa-2,6,10,11,17,18,22,25-octazapentacyclo[15.5.2.1^3,7.0^8,12.0^20,24]pentacosa-1(22),3,5,7(25),8(12),9,18,20,23-nonaen-19-yl]-1-methyl-pyrrol-2-yl]methyl]-2-fluoro-N-methyl-ethanamine] | < 0.01 | < 0.01 | < 0.01 | 0.1 to 1 | 0.01 to 0.1 | < 0.01 | < 0.01 | 
2 | C[C@H]1CCOc2c(cnn2C)-c2nccc(n2)Nc2cc3c(cn2)c(-c2ncc(CN4CCN(C)CC4)s2)nn31 [(107), (16S)-11,16-dimethyl-19-[5-[(4-methylpiperazin-1-yl)methyl]thiazol-2-yl]-13-oxa-2,6,10,11,17,18,22,25-octazapentacyclo[15.5.2.13,7.08,12.020,24]pentacosa-1(22),3,5,7(25),8(12),9,18,20,23-nonaene] | < 0.01 | < 0.01 | < 0.01 | 0.1 to 1 | < 0.01 | < 0.01 | < 0.01 | 
3 | C[C@H]1CCOc2c(cnn2C)-c2nccc(n2)Nc2cc3c(cn2)c(N2CC[C@H](N(C)C)C2)nn31 [(178)] | < 0.01 | 0.01 to 0.1 | < 0.01 | 0.1 to 1 | 0.01 to 0.1 | < 0.01 | 0.01 to 0.1 | 
4 | C[C@H]1CCOc2c(cnn2C)-c2nccc(n2)Nc2cc3c(cn2)c(N2CC[C@@H](N(C)C)C2)nn31 [(181)] | < 0.01 | < 0.01 | < 0.01 |  | 0.01 to 0.1 | 0.01 to 0.1 | 0.01 to 0.1 | 0.1 to 1
5 | C[C@H]1CCOc2c(cnn2C)-c2nccc(n2)Nc2cc3c(cn2)c(N2CC[C@H](O)C2)nn31 [(113)] | < 0.01 | < 0.01 | < 0.01 | 0.1 to 1 | < 0.01 | < 0.01 | < 0.01 | 
6 | CC1CCCOc2c(cnn2C)-c2nccc(n2)Nc2cc3c(cn2)c(-c2nnc(CN4CCN(C)CC4)o2)nn31 (stereo not shown) [(94)] | < 0.01 | 0.1 to 1 | < 0.01 | ≥ 1 | 0.1 to 1 | 0.1 to 1 | 0.1 to 1 | 
7 | C[C@@H]1CCCOc2c(cnn2C)-c2nccc(n2)Nc2cc3c(cn2)c(N2CCC2)nn31 [(77)] | 0.01 to 0.1 | ≥ 1 | 0.1 to 1 |  | 0.1 to 1 | 0.1 to 1 | ≥ 1 | ≥ 1
8 | CC1CCOc2c(cnn2C)-c2nccc(n2)Nc2cc3c(cn2)c(N2CC(C(=O)N(C)C)C2)nn31 (stereo not shown) [(16)] | < 0.01 | 0.01 to 0.1 | < 0.01 | 0.1 to 1 | 0.01 to 0.1 | 0.01 to 0.1 | 0.01 to 0.1 | 
9 | Cn1ncc2c1OCCCn1nc(N3CCCC3CO)c3cnc(cc31)Nc1ccnc-2n1 (stereo not shown) [(62)] | < 0.01 | 0.1 to 1 | < 0.01 | 0.1 to 1 | 0.1 to 1 | 0.1 to 1 | 0.1 to 1 | 
10 | C[C@H]1CCOc2c(cnn2C)-c2nccc(n2)Nc2cc3c(cn2)c(-c2ccc(CN4CCN(C)CC4)n2C)nn31 [(101), (16S)-11,16-dimethyl-19-[1-methyl-5-[(4-methylpiperazin-1-yl)methyl]pyrrol-2-yl]-13-oxa-2,6,10,11,17,18,22,25-octazapentacyclo[15.5.2.13,7.08,12.020,24]pentacosa-1(22),3,5,7(25),8(12),9,18,20,23-nonaene] | < 0.01 | < 0.01 | < 0.01 | 0.1 to 1 | < 0.01 | < 0.01 | < 0.01 | 
11 | C[C@H]1CCOc2c(cnn2C)-c2nccc(n2)Nc2cc3c(cn2)c(-c2cccc(N4CCC(N5CCN(C)CC5)CC4)c2)nn31 [(173)] | < 0.01 | < 0.01 | < 0.01 | 0.1 to 1 | < 0.01 | < 0.01 | < 0.01 | 
12 | C[C@H]1CCOc2c(cnn2C)-c2nccc(n2)Nc2cc3c(cn2)c(-c2cnn(CCN4CCOCC4)c2)nn31 [(116)] | < 0.01 | 0.01 to 0.1 | < 0.01 | 0.1 to 1 | 0.01 to 0.1 | 0.01 to 0.1 | 0.01 to 0.1 | 
13 | CC1CCCOc2c(cnn2C)-c2nccc(n2)Nc2cc3c(cn2)c(N2CCCC2)nn31 (stereo not shown) [(71)] | < 0.01 | < 0.01 | < 0.01 | 0.1 to 1 | 0.01 to 0.1 | 0.01 to 0.1 | 0.01 to 0.1 | 
14 | CCn1cc(-c2nn3c4cc(ncc24)Nc2ccnc(n2)-c2cnn(C)c2OCCC3C)cc1CN1CCN(C(C)C)CC1 (stereo not shown) [(80)] | < 0.01 | < 0.01 | < 0.01 | 0.01 to 0.1 | < 0.01 | < 0.01 | < 0.01 | 
15 | CC(C)n1ncc2c1OCCCC(C)n1nc(N3CCC3)c3cnc(cc31)Nc1ccnc-2n1 (stereo not shown) [(74)] | < 0.01 | 0.1 to 1 | < 0.01 | ≥ 1 | 0.1 to 1 | 0.1 to 1 | 0.1 to 1 | 

More lines, main results first:

Row | IC50 [2] [µM] | IC50 [3] [µM] | IC50 [4] [µM] | Compound | IC50 [1, 8] [µM] | GI50 [5] [µM] | GI50 [6] [µM] | GI50 [7] [µM] | IC50 [1, 9] [µM]
16 | < 0.01 | < 0.01 | < 0.01 | C[C@H]1CCOc2c(cnn2C)-c2nccc(n2)Nc2cc3c(cn2)c(-c2ccc(F)c(OCCN4CCOCC4)c2)nn31 [(154)] | 0.1 to 1 | 0.01 to 0.1 | < 0.01 | 0.01 to 0.1 | 
17 | < 0.01 | 0.01 to 0.1 | < 0.01 | CCn1nccc1-c1nn2c3cc(ncc13)Nc1ccnc(n1)-c1cnn(C)c1OCCCC2C (stereo not shown) [(86)] | ≥ 1 | 0.01 to 0.1 | 0.01 to 0.1 | 0.01 to 0.1 | 
18 | < 0.01 | < 0.01 | < 0.01 | CCN(CC)CCOc1cc(-c2nn3c4cc(ncc24)Nc2ccnc(n2)-c2cnn(C)c2OCC[C@@H]3C)ccc1F [(149)] | 0.1 to 1 | 0.01 to 0.1 | < 0.01 | < 0.01 | 
19 | < 0.01 | 0.01 to 0.1 | < 0.01 | CCN1CCC(Oc2cc(F)cc(-c3nn4c5cc(ncc35)Nc3ccnc(n3)-c3cnn(C)c3OCC[C@@H]4C)c2)CC1 [(128)] | 0.1 to 1 | 0.01 to 0.1 | 0.01 to 0.1 | 0.01 to 0.1 | 
20 | < 0.01 | < 0.01 | < 0.01 | C[C@H]1CCOc2c(cnn2C)-c2nccc(n2)Nc2cc3c(cn2)c(-c2cnn(CCN(C)C)c2)nn31 [(102)] | 0.1 to 1 | 0.01 to 0.1 | 0.01 to 0.1 | 0.01 to 0.1 | 
21 | < 0.01 | < 0.01 | < 0.01 | C[C@H]1CCOc2c(cnn2C)-c2nccc(n2)Nc2cc3c(cn2)c(-c2nn(C)cc2CCN(C)C)nn31 [(155)] | ≥ 1 | 0.01 to 0.1 | 0.01 to 0.1 | 0.01 to 0.1 | 
22 | < 0.01 | 0.01 to 0.1 | < 0.01 | CCN(CC)CCN(C)c1cc(F)cc(-c2nn3c4cc(ncc24)Nc2ccnc(n2)-c2cnn(C)c2OCC[C@@H]3C)c1 [(132)] | 0.1 to 1 | 0.01 to 0.1 | 0.01 to 0.1 | 0.01 to 0.1 | 
23 | < 0.01 | < 0.01 | < 0.01 | C[C@H]1CCOc2c(cnn2C)-c2nccc(n2)Nc2cc3c(cn2)c(-c2cccc(CCN4CCOCC4)c2)nn31 [(163)] | 0.1 to 1 | 0.01 to 0.1 | < 0.01 | 0.01 to 0.1 | 
24 | < 0.01 | < 0.01 | < 0.01 | CCN(CC)CCOc1cc(-c2nn3c4cc(ncc24)Nc2ccnc(n2)-c2cnn(C)c2OCC[C@@H]3C)ccc1Cl [(153)] | 0.1 to 1 | 0.01 to 0.1 | 0.01 to 0.1 | 0.01 to 0.1 | 
25 | < 0.01 | < 0.01 | < 0.01 | C[C@H]1CCOc2c(cnn2C)-c2nccc(n2)Nc2cc3c(cn2)c(-c2cccc(CN(C)C)c2)nn31 [(165)] | 0.1 to 1 | < 0.01 | < 0.01 | < 0.01 | 
26 | < 0.01 | < 0.01 | < 0.01 | COCCN(C)Cc1ccc(-c2nn3c4cc(ncc24)Nc2ccnc(n2)-c2cnn(C)c2OCC[C@@H]3C)n1C [(136)] | 0.1 to 1 | < 0.01 | < 0.01 | < 0.01 | 
27 | < 0.01 | < 0.01 | < 0.01 | C[C@H]1CCOc2c(cnn2C)-c2nccc(n2)Nc2cc3c(cn2)c(-c2ccc(CN(C)CCCF)n2C)nn31 [(192)] | 0.1 to 1 | < 0.01 | < 0.01 | < 0.01 | 
28 | < 0.01 | 0.01 to 0.1 | < 0.01 | C[C@H]1CCOc2c(cnn2C)-c2nccc(n2)Nc2cc3c(cn2)c(-c2cc(OCCN(C)C)ccc2F)nn31 [(130)] | ≥ 1 | 0.01 to 0.1 | 0.01 to 0.1 | 0.01 to 0.1 | 
